In paper PMC7866587, “Cell cycle arrest and apoptosis induction by Juniperus communis extract in esophageal squamous cell carcinoma through activation of p53‐induced apoptosis pathway” (Food Science & Nutrition, 2020):
≈ marks a conversion by molar mass, not a printed value.

Legend:
[1] = system: SVEC cells; assay: MTT cell viability assay (normal cells); type: cell-based; details: Mus musculus, mean ± SD
Experimental: (§1) CE81T/VGH (human esophageal squamous cell carcinoma), CE48T/VGH (human esophageal epidermoid carcinoma (VGH), SVEC (mouse vascular endothelial cell) and MDCK (cannis kidney epithelial cells) were purchased from the Food Industry Research and Development Institute. CE81T/VGH, CE48T/VGH, SVEC, and MDCK were cultured in Dulbecco's Modified Eagle Medium supplemented with 10% fetal bovine serum (Gibco BRL), 10 mM HEPES (Gibco), 1 mM pyruvate (Gibco), P/S (100 μg/ml penicillin, and 100 μg/ml streptomycin; Gibco), and non‐essential amino acids (Gibco, CE81T/VGH and CE48T/VGH only). Cells were grown in 10 cm^2 culture dishes in a humidified atmosphere with 5% CO2 at 37°C. The TP53 in the CE81T/VGH cells was mutated, which was detected using automated extraction of nucleic acids (AccuBioMed Co., Ltd.) and Femtopath Human Primer Sets (HongJing Biotech). JCo was purchased from the PHOENIX company and extracted using steam distillation. The clinical drug 5‐Fluorouracil (5‐FU; Sigma) was prepared in dimethyl sulfoxide (DMSO) in each in vitro experiment. Cells were treated with equivalent amounts of DMSO in the control and treatment groups, and the final concentration of DMSO in each experiment was 0.01%–0.5%.
(§2) The viability of CE81T/VGH, CE48T/VGH, MDCK, and SVEC cells was determined using a modified 3‐(4,5‐dimethylthiazol‐2‐yl)‐2,5‐diphenyltetrazolium bromide (MTT) assay. Cells were cultured in a 96‐well plate at a density of 5 × 10^3 cells/well for 24 hr and treated with different concentrations of JCo extract or 5‐FU for 24, 48, and 72 hr. MTT was dissolved in the base medium (400 μg/mL, Sigma), and 100 μl of solution was added into each well and incubated for 6–8 hr. The MTT formazan crystals were dissolved in 50 μL DMSO and the optical density (O.D.) was detected using a microplate reader (Molecular Devices, Spec384) at 550 nm. Cell viability was calculated as the O.D. percentage relative to the controls. The half‐maximal inhibitory concentration (IC50) value of JCo extract was measured from the cell viability assay.

[2] = system: MDCK cells; assay: MTT cell viability assay (normal cells); type: cell-based, cannis; details: Canis lupus familiaris, mean ± SD
Experimental: as §1, §2

[3] = system: CE48T/VGH cells; assay: MTT cell viability assay; type: cell-based, human; details: mean ± SD; for IC50: Homo sapiens
Experimental: as §1, §2

[4] = system: CE81T/VGH cells; assay: MTT cell viability assay; type: cell-based, human; details: for IC50: Homo sapiens, CE81T/VGH, mean ± SD
Experimental: as §1, §2

Compound: O=c1[nH]cc(F)c(=O)[nH]1 [5‐FU, 5‐fluorouracil]
- IC50 ([1]; 24 hr): 3.53 ± 0.29 µg/mL (≈ 27.1 µM)
- IC50 ([1]; 48 hr): < 0.63 µg/mL
- IC50 ([1]; 72 hr): < 0.63 µg/mL
- IC50 ([2]; 24 hr): > 20 µg/mL
- IC50 ([2]; 48 hr): < 0.63 µg/mL
- IC50 ([2]; 72 hr): < 0.63 µg/mL
- IC50 (cell viability) ([3]; 48 hr): 5.64 ± 0.34 µg/mL (≈ 43.4 µM)
- IC50 ([3]; 24 hr): 16 ± 0.03 µg/mL (≈ 123 µM)
- IC50 ([3]; 72 hr): 3.73 ± 0.06 µg/mL (≈ 28.7 µM)
- IC50 ([4]; 24 hr): > 20 µg/mL
- IC50 ([4]; 48 hr): 15.3 ± 6.74 µg/mL (≈ 118 µM)
- IC50 ([4]; 72 hr): 1.62 ± 0.04 µg/mL (≈ 12.5 µM)
- selection for ESCC versus normal cells (from IC50 values) ([4]; after 48 and 72 hr): lower
- selection between ESCC and normal cells (from IC50 values) ([4]; after 24 hr): no obvious selection
